Where two headings read alike, the source gives them in different places. No end group written: not given here.

Data on 4 substances can be found in patent US20040002457A1, “Inhibition of virus anchorage by RGG domain of a cell surface-expressed protein, polynucleotide coding for said RGG domain, therapeutic uses thereof by inhibition of microorganism or protein ligand binding to the cell-surface-expressed protein” (priority 2002, published 2004).

Experiment [1] concerns HIV-1 LAI. The settings on record: cited from earlier work.
The next experiment concerns HIV particles. Conditions: CD4+ target cells (refs 1, 4, 13, 26); cited from earlier work.
For experiment [2], the system named is HIV-1 LAI. Briefly: HIV-1 LAI infection in HeLa P4 cells (LTR-lacZ, β-galactosidase). It is filed as cell-based. The settings on record: HB-19A 1 μM (FIG. 9). As to the method:
Assay of HIV infection in HeLa CD4+cells. HIV-1 LAI infection was monitored indirectly in HeLa-CD4-LTR-/ac Z cells (HeLa P4 cells) containing the bacterial lac Z gene under the control of HIV-1 LTR. HIV-1 entry and replication result in the activation of the HIV-1 LTR leading to the expression of p-galactosidase. At 48 h post-infection, cells were lysed and assayed for β-galactosidase activity using the chlorophenol-red-β-D-galactopyranoside as a substrate. The optical density was measured at 570 nm (1). The HIV-1 Ba-L infection was monitored in HeLa-CD4-LTR-/ac Z cells but expressing also CCR5 (HeLa F4-C5 cells) as above (1).
Assay of peptides for their activity. Each peptide is tested at different concentrations to investigate their capacity to inhibit HIV infection. Each peptide is investigated for its binding capacity to the HB-19, using biotin-coupled HB-19.

In the next experiment the test system is HeLa P4 cells. The experiment in a line: HB-19A binding to HeLa P4 cells (125I-labeled HB-19A). On the set-up: species or system human. The settings on record: HeLa P4 cells washed at 300 mM NaCl (FIG. 3A). The method, then: (§1) Assay of HB-19A binding to cells. Cells were plated at 10^4 cells/well in 96-well-plates for the ^1251-labeled HB-19A binding or at 10^5 cells/well, in 24-well-plates for the biotinylated HB-19A binding. Twenty four hours later, binding experiments were performed after incubation of the cell monolayers in fresh culture medium for 1 h at room temperature (about 21° C.) in order to cool cells. It should be noted that intracellular entry of HB-19A is inhibited more than 90% at room temperature. Cells were incubated (30 min at room temperature) with different concentrations of the ^125I-labeled HB-19A or the biotinylated HB-19A before washing cells in culture medium containing 10% FCS. For total amount of binding (specific and non-specific), cells were washed 7 times with culture medium. For specific binding measurements, cells were first washed 3 times in culture medium supplemented with 150 mM NaCl thus bringing the final concentration of NaCl to 300 mM followed by 4 washings in culture medium. Washed cells were processed to reveal either the ^125I-labeled HB-19A or the biotinylated HB-19A. For the ^1251-labeled HB-19A binding, cell monolayers were extracted in 1% SDS and the radioactivity was measured in an automatic gamma counter (LKB Wallac Clini Gamma 1272). […] Finally, ortho-phenylenediamine solution was added in the dark and the absorbance was measured at 405 nm.

A further experiment deals with CHO K1 cells. Briefly: Biotinylated HB-19A binding to wild type CHO K1 cells. Conditions: wild type CHO K1 cells (FIG. 3B). On the set-up: species or system Chinese hamster. As to the method:
as §1

Another experiment concerns CHO 618 cells. Briefly: Biotinylated HB-19A binding to mutant CHO 618 cells. On the set-up: species or system Chinese hamster. The settings on record: CHO 618 devoid of heparan- and chondroitin-sulfate proteoglycans (FIG. 3B). The method, then:
as §1

The next experiment has as its target T1, full-length nucleolin (Homo sapiens, UniProt P19338).
T1 construct: labeled full length nucleolin, N-terminal and the C-terminal parts containing amino acids 1 to 707; vector-encoded His leader of pcDNA4His/Max C (only the vector name is printed); made in house; host or cells: cell-free: TNT coupled rabbit reticulocyte lysate (Promega), 35S-Met/Cys labelled, used crude
The experiment in a line: Biotinylated HB-19A binding to in vitro translated full-length nucleolin (avidin-agarose). The settings on record: amino acids 1 to 707, 0.5 or 1 μM biotinylated HB-19A (FIG. 6). The method, then: (§2) In vitro transcription and translation of human nucleolin. The TNT coupled reticulocyte lysate system (Promega) was used to produce the wild-type nucleolin (pcDNA4 Nuc) and the N- and C-terminal parts of nucleolin (pcDNA4 NucN and pcDNA4 NucC containing amino acids 1-308 and 309-707) by in vitro transcription/translation. Reactions were performed by using 2 μg of each plasmid and 20 μCi of […].
(§3) To assay the HB-19A binding capacity of the generated nucleolin and nucleolin truncated constructs, 25 μl of translation products were diluted in 25 μl of modified BI buffer (20 mM Tris-HCl, pH 7.6,100 mM NaCl, 50 mM KCl, 2 mM EDTA, 2% Triton X-100,1000 U/ml aprotinin), centrifuged at 12,000 g for 10 min at 4° C. and diluted in 150 μl of PBS. Binding reactions were performed by incubating 200 μl of each diluted lysates with the biotinylated HB-19A for 1 h at 4° C. Complexes formed between nucleolin deletion constructs and biotinylated HB-19A were isolated by purification of the extracts using avidin-agarose (100 μl) in PBS-EDTA (12). After 2 h of incubation at 4° C., the samples were washed extensively with PBS-EDTA. The purified proteins were eluted by heating in the electrophoresis sample buffer containing SDS and analyzed by SDS-PAGE.

For experiment [3], the target named is T2, N-terminal part of nucleolin (Homo sapiens, UniProt P19338).
T2 construct: pcDNA4 NucN and pcDNA4 NucC containing amino acids 1-308 and 309-707; vector-encoded His leader of pcDNA4His/Max C (only the vector name is printed); made in house; host or cells: cell-free: TNT coupled rabbit reticulocyte lysate (Promega), 35S-Met/Cys labelled, used crude
T2 sequence (P19338 1-308): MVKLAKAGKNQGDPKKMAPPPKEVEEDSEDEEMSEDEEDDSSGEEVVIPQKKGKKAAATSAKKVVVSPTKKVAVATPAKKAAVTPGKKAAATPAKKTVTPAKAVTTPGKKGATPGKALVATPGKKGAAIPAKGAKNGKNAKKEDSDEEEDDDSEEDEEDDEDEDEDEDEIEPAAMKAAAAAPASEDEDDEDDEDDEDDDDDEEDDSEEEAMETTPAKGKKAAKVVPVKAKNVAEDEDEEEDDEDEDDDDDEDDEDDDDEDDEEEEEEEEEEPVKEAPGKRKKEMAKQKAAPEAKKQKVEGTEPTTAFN
The experiment in a line: Biotinylated HB-19A binding to in vitro translated N-terminal part of nucleolin. Conditions: amino acids 1 to 308, contains the acidic stretches (FIG. 6). The method, then:
as §2, §3

Experiment [4] has as its system C-terminal part of nucleolin. The experiment in a line: Biotinylated HB-19A binding to in vitro translated C-terminal part of nucleolin. The settings on record: amino acids 309-707 (FIG. 6). On the set-up: species or system human. As to the method: as §2, §3
Another experiment concerns RGG domain of nucleolin. Briefly: Biotinylated HB-19A binding to GST constructs of nucleolin containing the RGG domain. Further details: species or system human. The settings on record: constructs containing the RGG domain (FIG. 8, lanes 1234G, R234G, G). As to the method: Expression and purification of recombinant nucleolin constructs. Escherichia coli (E. coli) BL21 (DE3) cells were transformed with each pGEX-N3 plasmid coding for truncated derivatives of the C-terminal part of human nucleolin. Cells were grown overnight at 37° C. in 100 ml of Terrific Broth containing 100 μg of ampicillin per ml. After 1:50 dilution in 100 ml of fresh medium, cells were grown at 30° C. to a 600 nm optical density of approximately 0.5 (6 h) and induced with 0.5 mM isopropyl-1-thio-D-galactopyranoside (IPTG) for an additional 2 h. Bacteria were pelleted at 4,000 g for 10 min at 4° C., resuspended in 5 ml of PBS containing 0.2 mM phenylmethylsulphonyl flouride (PMSF) and 1 mM DTT, and frozen at −20° C. overnight. […] The presence of proteins in cell extracts was monitored by SDS-Page with Coomassie blue staining, and their respective concentration estimated and adjusted.
Chain of RGG domain of nucleolin (P19338 648-710 limits assumed): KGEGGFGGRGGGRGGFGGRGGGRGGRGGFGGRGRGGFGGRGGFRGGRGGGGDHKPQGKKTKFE
To assay HB-19A binding capacity, bacterial extracts were first diluted 5-fold in PBS-EDTA before centrifugation at 12,000 g for 10 min at 4° C. […] The purified proteins were eluted by heating in the electrophoresis sample buffer containing SDS and analyzed by immunoblotting using anti-GST monoclonal antibody B-14 (Santa Cruz Biotechnology, Inc.).

The next experiment has as its system HIV. Conditions: 1 μM HB-19A, different types of cells (refs 1, 10); cited from earlier work.

T1 sequence (P19338 whole entry, the tested form may be a part): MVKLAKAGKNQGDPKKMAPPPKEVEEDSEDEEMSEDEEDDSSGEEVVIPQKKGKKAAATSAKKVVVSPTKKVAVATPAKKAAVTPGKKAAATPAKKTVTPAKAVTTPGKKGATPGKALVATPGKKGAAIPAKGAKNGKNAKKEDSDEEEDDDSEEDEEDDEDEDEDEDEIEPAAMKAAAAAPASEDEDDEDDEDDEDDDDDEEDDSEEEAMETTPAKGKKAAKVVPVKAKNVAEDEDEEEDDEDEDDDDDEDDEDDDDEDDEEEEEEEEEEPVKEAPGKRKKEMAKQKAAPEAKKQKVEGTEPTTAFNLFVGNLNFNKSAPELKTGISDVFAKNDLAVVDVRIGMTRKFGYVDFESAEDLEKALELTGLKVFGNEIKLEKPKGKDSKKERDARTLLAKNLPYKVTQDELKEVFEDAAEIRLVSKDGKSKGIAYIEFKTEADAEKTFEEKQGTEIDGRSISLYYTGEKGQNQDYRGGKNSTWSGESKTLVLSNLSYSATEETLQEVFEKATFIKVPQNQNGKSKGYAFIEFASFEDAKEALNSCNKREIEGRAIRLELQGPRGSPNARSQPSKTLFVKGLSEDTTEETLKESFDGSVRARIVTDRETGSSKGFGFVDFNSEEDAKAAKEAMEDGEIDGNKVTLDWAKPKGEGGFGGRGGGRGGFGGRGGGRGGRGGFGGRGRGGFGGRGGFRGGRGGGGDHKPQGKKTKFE
Chain of C-terminal part of nucleolin (P19338 312-710 limits assumed): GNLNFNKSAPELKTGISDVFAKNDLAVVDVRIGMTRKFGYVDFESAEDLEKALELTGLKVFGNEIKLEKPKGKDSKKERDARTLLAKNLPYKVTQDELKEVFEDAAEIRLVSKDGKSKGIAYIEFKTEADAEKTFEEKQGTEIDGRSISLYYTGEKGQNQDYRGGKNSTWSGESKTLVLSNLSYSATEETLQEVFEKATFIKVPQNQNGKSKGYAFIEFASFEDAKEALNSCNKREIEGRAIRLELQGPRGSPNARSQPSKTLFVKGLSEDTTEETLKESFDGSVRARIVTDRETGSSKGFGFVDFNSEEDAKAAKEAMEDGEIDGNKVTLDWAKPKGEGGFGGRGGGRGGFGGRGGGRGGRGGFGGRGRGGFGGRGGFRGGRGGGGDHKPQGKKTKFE

In the case of 5[Kψ(CH2N)PR]-TASP [HB-19], the “HIV entry at the level of HIV attachment, pretreatment of cells” value with HIV-1 LAI [1] (HeLa P4 cells (refs 1, 4)) is on record as “inhibition of HIV entry”. In addition, in the experiment on HIV-1 LAI [1] (several hours after removal (ref 1)), the “resistance to HIV of pretreated cells after removal of the medium containing the inhibitor” value is “remain resistant”. For the same substance, in the experiment with HIV particles, the “anchorage of HIV particles” value is listed as “inhibited”.

Consider “HB-19A: new generation of HB-19 presenting pentavalently the Kψ(CH2N)PR moiety coupled to a modified TASP template (peptide Lys-Pro-Arg; chain KKKKA; also: Kψ(CH2N)P reduced bond, pentavalent on modified TASP template)”, for which, in the experiment with HIV-1 LAI [2], the “HIV entry at the level of HIV attachment, pretreatment of cells” value is given as “inhibition of HIV entry”. For the same substance, the “concentration at which specific binding reaches saturation” value in the experiment on HeLa P4 cells came to 1 µM. For the same substance, the “concentration at which binding reaches saturation” value in the experiment on CHO K1 cells was determined as 1 µM. The “HB-19A binding profile compared with CHO K1” value in the experiment on CHO 618 cells is recorded as “no significant difference”. Also, the “binding to full-length nucleolin” value in the experiment with full-length nucleolin was “bind”. Moreover, the “binding to N-terminal part of nucleolin” value in [3] was “did not bind at all”. Moreover, the “binding to C-terminal part of nucleolin” value in experiment [4] is “bound efficiently”. Besides, in the experiment on RGG domain of nucleolin, the “HB-19A concentration at which binding reaches maximum value” was found to be 5 µM. The “inhibition of HIV infection” value with HIV was “more than 95%”. Also, the “anchorage of HIV particles” value with HIV particles is listed as “inhibited”.

Regarding “RRWCYRKDKPYRKCR [TW70, anti-HIV cyclic peptide specific for CXCR4, reference compound]”, the “anchorage of HIV particles” value in the experiment with HIV particles is “inhibited”.

As for “fibroblast growth factor 2: growth factor which binds heparan sulfate proteoglycans”, the “anchorage of HIV particles” value with HIV particles is “inhibited”.
